Read-outs that look alike come from different tables or passages of the source.
Assays:
human osteoclasts = assay: Human osteoclast resorption assay; assay type: cell-based; details: read-out: Cell-based Human IC50
Experimental: Bone resorption was studied using a model where human osteoclast precursor cells were cultured on bovine bone slices for 9 days and allowed to differentiate into bone-resorbing osteoclasts. The formed mature osteoclasts were then allowed to resorb bone. The assay was performed by Pharmatest Services Ltd, Itäinen Pitkakatu 4C, Turku, Finland. After the culture period, bone collagen degradation products were quantified from the culture medium as an index of bone resorption. Inhibitor compounds were added into the cell cultures after the differentiation period and their effects on the resorbing activity of mature osteoclasts were determined. The studies included a baseline group without added compounds and a positive control group where a potent cathepsin K inhibitor E-64 was added.
Human peripheral blood monocytes were suspended to culture medium and allowed to attach to bovine bone slices. The bone slices were transferred into 96-well tissue culture plates containing culture medium with appropriate amounts of important growth factors favouring osteoclast differentiation, including M-CSF, RANK-ligand and TGF-[…]. The cells were incubated in a CO2 incubator in humidified atmosphere of 95% air and 5% carbon dioxide at 37° C. At day 7 when osteoclast differentiation was complete, the culture medium was replaced with culture medium containing conditions favouring osteoclast activity. The cell culture was continued for an additional 2 days, during which the formed mature osteoclasts were allowed to resorb bone in the presence of vehicle, control inhibitor (E64) or test compounds. At the end of the culture, bone collagen degradation products released into the culture medium were determined using a commercially available ELISA method (CrossLaps® for culture, Nordic Bioscience, Herlev, Denmark) as an index of bone resorption (see Bagger, Y. Z. et al, J. Bone. Miner. Res. 14 (suppl. 1), S370).

[1] = Plasma incubations (human plasma stability); assay type: in vitro ADME; details: 37° C. Further: tested at 25 µM.
Experimental: Aliquots were removed at 2 and 60 minutes and quenched with an equal volume of cold acetonitrile. After mixing vigorously, the precipitated protein matter was removed by filtration (Multiscreen Solvinert filter plates, Millipore, Bedford, Mass., USA) and the filtrate analysed by reverse phase HPLC with mass spectrometric detection, using single ion monitoring of the [M+H]^+ species. Metabolic turnover was determined by comparison of peak areas from the ion chromatograms of the parent compound at 2 and 60 minutes and expressed as percent remaining at 1 hour.

LogD determinations = assay type: physicochemical; details: Ion-count method; for logD at 1 h: 1-octanol/phosphate buffered saline, pH 7.4, pH 7.4
Experimental: LogD(PBS) determinations were performed in 96 well microtitre plates using a miniaturised “shake-flask” method. […] The plates were then capped and mixed vigorously for 1 hour on a microtitre plate shaker, after which they were left to stand, allowing the PBS and octanol phases to separate. The PBS layer was analysed by reverse phase HPLC with mass spectrometric detection, using single ion monitoring of the [M+H]^+ species.
Where AUCstd and AUCpbs are the peak areas from the standard and test ion chromatograms respectively.

cathepsin K = target: T1, cathepsin K (Homo sapiens, UniProt P43235); assay: In vitro cathepsin Ki inhibition measurements; assay type: biochemical; design: purchased B. Turk, Josef Stefan Institute, Ljubljana, Slovenia
T1 sequence (P43235 115-329): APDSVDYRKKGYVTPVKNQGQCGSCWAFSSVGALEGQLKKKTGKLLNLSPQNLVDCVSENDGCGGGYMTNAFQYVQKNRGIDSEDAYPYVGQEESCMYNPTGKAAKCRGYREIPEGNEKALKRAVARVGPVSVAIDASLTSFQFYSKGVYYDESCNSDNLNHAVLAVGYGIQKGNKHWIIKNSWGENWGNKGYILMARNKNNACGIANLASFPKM
Experimental: Stock solutions of substrate or inhibitor were made up to 10 mM in 100% dimethylsulfoxide (DMSO) (Rathburns, Glasgow, U.K.) and diluted as appropriately required. In all cases the DMSO concentration in the assays was maintained at less than 1% (vol./vol.). The equilibrium inhibition constants (Ki^SS) for each compound were measured under steady-state conditions monitoring enzyme activity as a function of inhibitor concentration. The values were calculated on the assumption of pure competitive behaviour (Cornish-Bowden, A. Fundamentals of enzyme kinetics Portland Press; 1995, 93-128). Human recombinant cathepsin K (0.25 nM final; B. Turk, Josef, Stefan Institute, Ljubljana, Slovenia), was routinely assayed in 100 mM sodium acetate; pH 5.5 containing 1 mM EDTA, 10 mM L-cysteine and 1.8 μM Z-Leu-Arg-AMC ([S]═KM).
The apparent inhibition constant (Ki) for each compound was determined on the basis that inhibition was reversible and occurred by a pure-competitive mechanism. The Ki values were calculated, from the dependence of enzyme activity as a function of inhibitor concentration, by direct regression analysis (Prism v 3.02) using Equation 2 (Cornish-Bowden, A., 1995).
In situations where the apparent dissociation constant (Ki^app) approached the enzyme concentrations, the Ki^app values were calculated using a quadratic solution in the form described by Equation 3 (Morrison, J. F. Trends Biochem. Sci., 7, 102-105, 1982; Morrison, J. F. Biochim. Biophys. Acta, 185, 269-286, 1969; Stone, S. R. and Hofsteenge, J. Biochemistry, 25, 4622-4628, 1986).
Curves were fitted by non-linear regression analysis (Prism) using a fixed value for the enzyme concentration. Equation 4 was used to account for the substrate kinetics, where ‘Ki’ is the inhibition constant, ‘[So]’ is the initial substrate concentration and ‘KM^app’ is the apparent macroscopic binding (Michaelis) constant for the substrate (Morrison, 1982).

[2] = human recombinant cathepsin K, read-out: In vitro Ki (nM) vs Cath K
[3] = prior art examples of WO-A-02057270, recombinant human cathepsin K, read-out: Ki (nM) vs Human Cathepsin K

Molecule | Human Plasma Stability % rem. @ 1 h [1] [%] | Ki (cathepsin K; [2]) [nM] | Ki (cathepsin K; [3]) [nM] | other results
CO[C@H]1CN(C(=O)[C@@H](NC(=O)c2ccc(N3CCN(C)CC3)cc2)C2CCCC2)[C@@H]2C(=O)CO[C@H]12 | 93.6 | 1.8 |  | IC50 (human osteoclasts): 52 nM; logD at 1 h (LogD determinations): 1.36
CCN1CCN(c2ccc(C(=O)N[C@H](C(=O)N3C[C@H](OC)[C@H]4OCC(=O)[C@H]43)C3CCCC3)cc2)CC1 | 90.9 | 3.6 |  | logD at 1 h (LogD determinations): 1.59
CO[C@@H]1CN(C(=O)[C@@H](NC(=O)c2ccc(N3CCN(C)CC3)cc2)C2CCCC2)[C@@H]2C(=O)CO[C@@H]21 | 91.8 | 4.9 |  | IC50 (human osteoclasts): 637 nM; logD at 1 h (LogD determinations): 0.75
CCN1CCN(c2ccc(C(=O)N[C@H](C(=O)N3C[C@@H](OC)[C@H]4OCC(=O)[C@H]43)C3CCCC3)cc2)CC1 | 90.7 | 3.4 |  | IC50 (human osteoclasts): 231 nM; logD at 1 h (LogD determinations): 0.95
4-(4-ethylpiperazin-1-yl)-N—((S)-1-((3aS,6R,6aS)-6-methoxy-3-oxodihydro-2H-furo[3,2-b]pyrrol-4(5H,6H,6aH)-yl)-4-methyl-1-oxopentan-2-yl)benzamide [Example 7] |  |  | > 15000 | 
4-(4-ethylpiperazin-1-yl)-N—((S)-1-((3aS,6S,6aS)-6-methoxy-3-oxodihydro-2H-furo[3,2-b]pyrrol-4(5H,6H,6aH)-yl)-4,4dimethyl-1-oxopentan-2-yl)benzamide [Example 6] |  |  | > 20000 | 
4-(4-ethylpiperazin-1-yl)-N—((S)-1-((3aS,6S,6aS)-6-methoxy-3-oxodihydro-2H-furo[3,2-b]pyrrol-4(5H,6H,6aH)-yl)-4-methyl-1-oxopentan-2-yl)benzamide [Example 5] |  |  | > 100000 | 
CO[C@@H]1CN(C(=O)[C@H](CC(C)C)NC(=O)c2ccc(N3CCN(C)CC3)cc2)[C@@H]2C(=O)CO[C@@H]21 [Example 3, N—((S)-1-((3aS,6R,6aS)-6-methoxy-3-oxodihydro-2H-furo[3,2-b]pyrrol-4(5H,6H,6aH)-yl)-4-methyl-1-oxopentan-2-yl)-4-(4-methylpiperazin-1-yl)benzamide] | 87 | 15.1 |  | LogD pH 7.4 (LogD determinations): 0.42
CCN1CCN(c2ccc(C(=O)N[C@@H](CC(C)(C)C)C(=O)N3C[C@H](OC)[C@H]4OCC(=O)[C@H]43)cc2)CC1 [Example 6, 4-(4-ethylpiperazin-1-yl)-N—((S)-1-((3aS,6S,6aS)-6-methoxy-3-oxodihydro-2H-furo[3,2-b]pyrrol-4(5H,6H,6aH)-yl)-4,4dimethyl-1-oxopentan-2-yl)benzamide] | 100 | 5.1 |  | logD at 1 h (LogD determinations): > 0.8; LogD pH 7.4 (LogD determinations): 1.46
CCCN1CCN(c2ccc(C(=O)N[C@@H](CC(C)C)C(=O)N3C[C@H](OC)[C@H]4OCC(=O)[C@H]43)cc2)CC1 [Example 13, N—((S)-1-((3aS,6S,6aS)-6-methoxy-3-oxodihydro-2H-furo[3,2-b]pyrrol-4(5H,6H,6aH)-yl)-4-methyl-1-oxopentan-2-yl)-4-(4-propylpiperazin-1-yl)benzamide] | 93 | 3.9 |  | LogD pH 7.4 (LogD determinations): 1.64
CCCN1CCN(c2ccc(C(=O)N[C@@H](CC(C)(C)C)C(=O)N3C[C@H](OC)[C@H]4OCC(=O)[C@H]43)cc2)CC1 [Example 14, N—((S)-1-((3aS,6S,6aS)-6-methoxy-3-oxodihydro-2H-furo[3,2-b]pyrrol-4(5H,6H,6aH)-yl)-4,4-dimethyl-1-oxopentan-2-yl)-4-(4-propylpiperazin-1-yl)benzamide] | 98 | 8.6 |  | LogD pH 7.4 (LogD determinations): 1.74
COCCN1CCN(c2ccc(C(=O)N[C@@H](CC(C)C)C(=O)N3C[C@@H](N)[C@H]4OCC(=O)[C@H]43)cc2)CC1 [Example 24, N—((S)-1-((3aS,6R,6aR)-6-amino-3-oxodihydro-2H-furo[3,2-b]pyrrol-4(5H,6H,6aH)-yl)-4-methyl-1-oxopentan-2-yl)-4-(4-(2-methoxyethyl)piperazin-1-yl)benzamide] | 96 | 3.5 |  | logD at 1 h (LogD determinations): 0.01 to 0.76; LogD pH 7.4 (LogD determinations): 0.01
N—((S)-1-((3aS,6R,6aR)-6-amino-3-oxodihydro-2H-furo[3,2-b]pyrrol-4(5H,6H,6aH)-yl)-4-methyl-1-oxopentan-2-yl)-4-(4-(2-methoxyethyl)piperazin-1-yl)benzamide [Example 24] |  |  | > 2000 | 
N—((S)-1-((3aS,6R,6aS)-6-hydroxy-3-oxodihydro-2H-furo[3,2-b]pyrrol-4(5H,6H,6aH)-yl)-4-methyl-1-oxopentan-2-yl)-4-(4-(2-methoxyethyl)piperazin-1-yl)benzamide [Example 26] |  |  | > 8000 | 
N—((S)-1-((3aS,6R,6aS)-6-methoxy-3-oxodihydro-2H-furo[3,2-b]pyrrol-4(5H,6H,6aH)-yl)-4,4-dimethyl-1-oxopentan-2-yl)-4-(1-propylpiperidin-4-yl)benzamide [Example 38] |  |  | > 4000 | 
N—((S)-1-((3aS,6R,6aS)-6-methoxy-3-oxodihydro-2H-furo[3,2-b]pyrrol-4(5H,6H,6aH)-yl)-4,4-dimethyl-1-oxopentan-2-yl)-4-(4-methylpiperazin-1-yl)benzamide [Example 4] |  |  | > 100000 | 
N—((S)-1-((3aS,6R,6aS)-6-methoxy-3-oxodihydro-2H-furo[3,2-b]pyrrol-4(5H,6H,6aH)-yl)-4-methyl-1-oxopentan-2-yl)-4-(4-(2-methoxyethyl)piperazin-1-yl)benzamide [Example 28] |  |  | > 2500 | 
N—((S)-1-((3aS,6R,6aS)-6-methoxy-3-oxodihydro-2H-furo[3,2-b]pyrrol-4(5H,6H,6aH)-yl)-4-methyl-1-oxopentan-2-yl)-4-(4-methylpiperazin-1-yl)benzamide [Example 3] |  |  | > 4000 | 
N—((S)-1-((3aS,6S,6aR)-6-amino-3-oxodihydro-2H-furo[3,2-b]pyrrol-4(5H,6H,6aH)-yl)-4-methyl-1-oxopentan-2-yl)-4-(4-(2-methoxyethyl)piperazin-1-yl)benzamide [Example 23] |  |  | > 3000 | 
N—((S)-1-((3aS,6S,6aS)-6-methoxy-3-oxodihydro-2H-furo[3,2-b]pyrrol-4(5H,6H,6aH)-yl)-4,4-dimethyl-1-oxopentan-2-yl)-4-(4-methylpiperazin-1-yl)benzamide [Example 2] |  |  | > 50000 | 
N—((S)-1-((3aS,6S,6aS)-6-methoxy-3-oxodihydro-2H-furo[3,2-b]pyrrol-4(5H,6H,6aH)-yl)-4-methyl-1-oxopentan-2-yl)-4-(4-(2-methoxyethyl)piperazin-1-yl)benzamide [Example 27] |  |  | > 20000 | 
N—((S)-1-((3aS,6S,6aS)-6-methoxy-3-oxodihydro-2H-furo[3,2-b]pyrrol-4(5H,6H,6aH)-yl)-4-methyl-1-oxopentan-2-yl)-4-(4-methylpiperazin-1-yl)benzamide [Example 1] |  |  | > 20000 | 

Reference: patent publication US7803803B2, “Tetrahydrofuro[3,2-B] pyrrol-3-ones as cathepsin K inhibitors” (Amura Therapeutics Limited, priority 2007, dated 2010)
